Laboratory results published in US20200155579A1, “Process for Hydrating Cyclophosphamide Freeze-Dried Composition and Product Thereof” (priority 2018, published 2020).

Assays:
[1] = CPP content determination (HPLC); assay type: physicochemical; settings: raw material, initial
Protocol: Preparation of sample stock solution (1 mg/ml anhydrous Cyclophosphamide): an appropriate amount of water is charged into sample bottle with shaking until complete dissolution of the sample, which is transferred to 500 ml volumetric flask. The sample bottle is washed with pure water to ensure complete transfer of all samples into the volumetric flask. The volumetric flask is metered into calibration and shaken for homogeneity.
Preparation of sample solution (0.5 mg/ml anhydrous Cyclophosphamide): 25 ml of sample stock solution and 5.0 ml of internal control solution (precisely weighed 185 mg of ethyl p-hydroxybenzoate control is dissolved in 1000 ml volumetric flask, to which is added 250 ml of ethanol. After shaking for dissolution, pure water is used to meter to calibration with shaking) are charged in 50 ml volumetric flask, which is metered with pure water to calibration with shaking and then used for HPLC analysis.

[2] = Stability in 40° C./75% RH stability test chamber (CPP content); assay type: physicochemical; settings: raw material
Protocol: The CPP freeze-dried composition hydrated for 16 h was placed in 40° C./75% RH stability test chamber, was sampled after 1 month and 3 months, and determined for CPP contents, which were compared with CPP monohydrate obtained by prior art hydrating process.
The CPP freeze-dried composition hydrated for 16 h was placed in 40° C./75% RH stability test chamber, sampled after 1 month and 3 months for determining CPP contents.

[3] = raw material
Protocol: The moisture content, CPP content and redissolving time were determined for CPP freeze-dried composition hydrated with saturated sodium chloride solution in the freeze-drying box, respectively. In addition, the CPP freeze-dried compositions hydrated for 16 h and 24 h were placed in 45° C. oven and sampled for determining CPP contents after 1 week and 2 weeks, respectively.
Moisture content, CPP content and redissolving time were determined for CPP freeze-dried composition hydrated with saturated sodium chloride solution in the dryer, respectively. In addition, the CPP freeze-dried composition hydrated for 16 h was placed in 45° C. oven, sampled after 1 week and 2 weeks, respectively and determined for CPP contents. The CPP freeze-dried composition hydrated for 16 h was placed in 40° C./75% RH stability test chamber, was sampled after 1 month and 3 months, and determined for CPP contents, which were compared with CPP monohydrate obtained by prior art hydrating process.
The moisture content, CPP content and redissolving time were determined for CPP freeze-dried composition hydrated with saturated potassium sulfate solution in the dryer, respectively. In addition, the CPP freeze-dried composition hydrated for 16 h was placed in 45° C. oven and was sampled for determining CPP contents after 1 week and 2 weeks, respectively. […]

[4] = Bulk density (USP <616> Method I); assay type: physicochemical; settings: active ingredient; strength NA, hydration solution NA
Protocol: BD is calculated by the following formula: […]
W is the theoretical weight, g;
V0 is the macroscopic volume, mL.
V0 is calculated by the following formula: […]
D is the theoretical inside diameter, cm;

[5] = Tapped density (USP <616> Method I); assay type: physicochemical; settings: active ingredient; strength NA, hydration solution NA
[6] = Skeletal density (gas pycnometer); assay type: physicochemical; settings: active ingredient; strength NA, hydration solution NA
Protocol: Skeletal Density, also known as true density, is determined at room temperature by Gas Pycnometer (Micromeritics Accupyc II 1340). Skeletal density is calculated by the following formula: […]
V1 is the true volume of the test sample, measured by Gas Pycnometer, mL.

[7] = Porosity (calculated from bulk and skeletal density); assay type: physicochemical; settings: active ingredient; strength NA, hydration solution NA
Protocol: The porosity is calculated with the macroscopic volume (V0) & true volume (V1) or the bulk density (ρ0) & skeletal density (ρ1) by the following formula: […]

[8] = Reconstitution time (0.9% sodium chloride injection, cyclotron 250 rpm); assay type: physicochemical; settings: active ingredient
Protocol: Then the glass vial is placed on cyclotron (HY-5, Shanghai Suhao intelligent system Co. Ltd) which makes the glass vial oscillate at 250 rpm at room temperature to dissolve the active ingredient completely. The reconstitution time is recorded in Table 20.

[9] = assay type: physicochemical; settings: air dispersion/dry model; hydration pressure 50 kPa
Protocol: The hydrated CPP freeze-dried composition is stirred by weighting scoop gently until flowable powder comes into being. Then 1-2 g test sample is added on injection plate. Test method and parameters are as follows:
It will be understood by a person of ordinary skill in the art that a common approach to defining the distribution width is to cite three values on the x-axis, the D10, D50, and D90. As used herein, the term “D50” refers to the median particle diameter, wherein half of the particle population has a diameter below such value. As used herein, the term “D90,” refers to the particle diameter wherein 90% of the particle population has a diameter below such value. As used herein, the term “D10,” refers to the particle diameter wherein 10% of the particle population has a diameter below such value.

[10] = general description; cited from earlier work

| SMILES | CPP content % [1] [%] | Stability-CPP content % 40° C./75% RH-1 month [2] [%] | Stability-CPP content % 40° C./75% RH-3 month [2] [%] | Stability-CPP content % 45° C.-1 week [3] [%] | Stability-CPP content % 45° C.-2 week [3] [%] | Bulk Density [4] [g/mL] | Tapped Density [5] [g/mL] | Skeletal Density [6] [g/mL] | Porosity [7] [%] | Reconstitution time ([8]; strength 0.5 g) [min] | Reconstitution time ([8]; strength 1 g) [min] | Reconstitution time ([8]; strength 2 g) [min] | D10 [9] [μm] | D50 [9] [μm] | D90 [9] [μm] | Solubility [10] |
| --- | --- | --- | --- | --- | --- | --- | --- | --- | --- | --- | --- | --- | --- | --- | --- | --- |
| O=P1(N(CCCl)CCCl)NCCCO1 (stereo not drawn) [CPP monohydrate raw material, P-[N,N-bis(β-chloroethyl)]-1-oxa-3-aza-2-phosphocyclohexane-P-oxide] | 99.6 | 98.9 | 86.1 | 106.1 | 101.8 |  |  |  |  |  |  |  |  |  |  |  |
| O=P1(N(CCCl)CCCl)NCCCO1 (stereo not drawn) [P-[N,N-bis(β-chloroethyl)]-1-oxa-3-aza-2-phosphocyclohexane-P-oxide] |  |  |  |  |  | 0.6246 | 0.9369 | 1.4286 | 56.28 | 8.7 | 11.2 | 16.4 | 5.6 | 34.8 | 262.0 | soluble in water, normal saline or ethanol |
